Test results as given in patent US20170021014A1, “VACCINE ADJUVANTS FOR CYTOMEGALOVIRUS PREVENTION AND TREATMENT” (THE JOHNS HOPKINS UNIVERSITY, priority 2015, published 2017).

Tests used:
HCMV TB40 = assay: Plaque reduction assay in HFFs, HCMV TB40; assay type: cell-based, human cytomegalovirus; settings: MDP 10 μg/mL pretreatment 72 h, 100 PFU/well, 10 days
Procedure: A plaque reduction assay was performed in HFFs to determine the effects of MDP treatment either before or after infection on virus replication. HFFs were seeded into 12-well plates (2×10^5 cells/well) and infected with Towne HCMV at approximately 100 plaques/well. After 90 minutes, media were aspirated, and DMEM containing 0.5% carboxymethyl-cellulose (CMC), 4% fetal bovine serum (FBS), and MDP at final concentration of 10 μg/mL were added into duplicate wells. In pretreatment experiments HFFs were first treated with MDP (10 μg/mL) for 72 h after which infection with the Towne or TB40 strains was carried out at approximately 100 plaques/well. After 90 minute adsorption, media were aspirated, and DMEM containing 0.5% CMC and 4% FBS were added into duplicate wells. After incubation at 37° C. for 8 days (Towne) or 10 days (TB40) the overlay was removed and plaques were counted after crystal violet staining.

clinical isolate of HCMV = assay: Immunofluorescence staining for HCMV IE1/2; assay type: cell-based, human cytomegalovirus; settings: GIPZ HFFs, MDP pretreatment 72 h, infected 24 h, MOI 1
Procedure: GIPZ control and shIFN-β HFFs were seeded into 96-well plate (1×10^4 cells/well) and pretreated with MDP (10 μg/mL) for 72 h. Cells were then infected with a clinical isolate of HCMV at MOI 1. Twenty-four hours after infection, cells were fixed with methanol/acetone (1:1) at −20° C. for 10 min. Cells were then blocked with 7.5% BSA for 30 min. and incubated for 1 h with anti-human CMV IE1&2 antibody (MAB810) (1:500 in 0.5% BSA). After 3 washes with PBS, cells were incubated with FITC-anti mouse antibody (F8521, Sigma, 1:500, in 0.5% BSA) for 1 h. Then cells were washed 3 times with PBS and counterstained with propidium iodide (Invitrogen) for nuclear staining. Images were taken using Nikon Eclipse TS100 microscope.

NOD2 mRNA = assay: qRT-PCR of NOD2 mRNA in HFFs; assay type: cell-based, Human; settings: for NOD2 induction by MDP: HCMV-infected, 36 hpi
Procedure: Total RNA was isolated from cells using RNAeasy Mini kit (Qiagen, Georgetown, Md.) according to manufacturer's instructions. RevertAid first strand cDNA synthesis kit (Fermentas life sciences, Cromwell Park, Md.) was used to synthesize first strand cDNA from total RNA using oligo-dT primers. Negative reverse-transcriptase (−RT) reactions were included to ensure the specificity of qRT-PCR reactions. Synthesis of first strand cDNA from mRNA template was carried out at 42° C. for 1 h. Quantitative RT-PCR was performed using specific primers and SYBR green (Fermentas life science) with two-step cycling protocol (95° C. for 15 s, 60° C. for 1 min). All reactions were performed in triplicates and GAPDH was used as internal control. The expression level of the tested genes was normalized to the expression of GAPDH.

[1] = system: pp28-luciferase Towne strain; assay: pp28-luciferase HCMV replication assay (first and second cycle); assay type: cell-based, human cytomegalovirus; settings: for luciferase activity reduction, second cycle: MOI 1, second cycle 72 h
Procedure: Human Foreskin Fibroblasts (HFFs) passage 12-16 (ATCC, CRL-2088™) were grown in Dulbecco's Modified Eagle Medium (DMEM) containing 10% fetal bovine serum (FBS) (Gibco, Carlsbad, Calif.) in a 5% CO2 incubator at 37° C. The generation of NOD2-KD HFFs (HFF-shNOD2) and control cells (HFF-GIPZ) was reported. One day prior to infection or treatment, 8×10^4 cells were seeded into each well of 12-well tissue culture plates. Multiplicities of infection were specified for each experiment. The Towne HCMV strain was obtained from ATCC (VR-977). The pp28-luciferase Towne strain which expresses luciferase under the control of the pp28 late promoter has been described. Luciferase activity was measured at 72 or 96 hours post infection (hpi) using the Glomax-Multi+ Detection System (Promega, Madison, Wis.). In second cycle replication assays cell free supernatants from HFFs infected with pp28-luciferase Towne were collected 4 days post completion of first replication cycle (5-10% of total volume/well), and used for infection of fresh HFFs seeded into 12-well plates. Cell lysates were collected after 72 h for luciferase activity. Supernatants from the first cycle were also used to measure virus titer in 12-well plates and plaques were counted at day 8 post infection. A purified preparation of the pp28-luciferase Towne strain was prepared by ultracentrifugation using sucrose gradient. The HCMV TB40 strain was obtained from ATCC (VR-1578). Clinical isolates of HCMV were obtained from the microbiology laboratory at Johns Hopkins Hospital with no identifiers that could be linked to a patient. The Johns Hopkins School of Medicine Office of Human Subject Research Institutional Review Board (IRB-X) determined that the research qualified for an exemption.

CC(=O)N[C@H]1C(O)O[C@H](CO)[C@@H](O)[C@@H]1O[C@H](C)C(=O)N[C@@H](C)C(=O)N[C@H](CCC(=O)O)C(N)=O (mixture of isomers) [MDP, Muramyl dipeptide]
plaque number reduction (HCMV TB40): ~70%
nuclear IE1/2 expression (clinical isolate of HCMV): reduced IE1/2 expression
NOD2 induction by MDP (NOD2 mRNA; MOI 0.1, MDP after infection): 6.5 fold
NOD2 induction by MDP (NOD2 mRNA; MOI 1, MDP after infection): 2.5 fold
NOD2 mRNA induction (NOD2 mRNA; MDP pretreatment 72 h then HCMV Towne MOI 1 for 24 h (infection only 50-fold)): 265 fold
induction of NOD2 mRNA (NOD2 mRNA; non-infected HFFs, MDP 10 μg/mL, 36 h): 4 fold
induction of NOD2 mRNA (NOD2 mRNA; non-infected cells, 72 h MDP treatment then 24 h medium): 3 fold
pp28 activity reduction, first cycle ([1]; MDP pretreatment 10 μg/mL 72 h, MOI 0.1, 96 hpi): 80%
pp28 expression (luciferase activity), first cycle ([1]; MDP pretreatment 18 or 72 h, MOI 1, 96 hpi): modest reduction
luciferase activity reduction, second cycle ([1]; MDP pretreatment 18 h): approximately 45%
luciferase activity reduction, second cycle ([1]; MDP pretreatment 72 h): ~75%
